# Columns and labels:
# [1] = target: T1, endogenous human 5-HT2C receptor (Homo sapiens, UniProt P28335)
# T1 sequence (P28335 33-458): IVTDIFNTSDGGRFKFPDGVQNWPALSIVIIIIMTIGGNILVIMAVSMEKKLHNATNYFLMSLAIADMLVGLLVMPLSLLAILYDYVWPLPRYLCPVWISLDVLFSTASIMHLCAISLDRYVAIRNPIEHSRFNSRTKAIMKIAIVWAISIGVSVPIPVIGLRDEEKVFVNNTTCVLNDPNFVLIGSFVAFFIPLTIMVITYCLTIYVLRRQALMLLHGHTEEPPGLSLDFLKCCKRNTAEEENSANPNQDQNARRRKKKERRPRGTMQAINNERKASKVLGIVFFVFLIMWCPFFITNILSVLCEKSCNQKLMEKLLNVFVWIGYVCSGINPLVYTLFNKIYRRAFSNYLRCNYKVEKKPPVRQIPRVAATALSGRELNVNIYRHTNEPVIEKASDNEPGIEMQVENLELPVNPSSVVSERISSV
# [2] = target: T2, 5HT2A receptor (Rattus norvegicus, UniProt P14842); test: 125I-LSD displacement from brain sections, autoradiography, cortex; assay type: binding, Sprague-Dawley rats; details: 1 micromolar compound, 1 nanomolar 125I-LSD
# T2 construct: from tissue; host or cells: Sprague-Dawley rat brain, horizontal cryostat sections (cerebral cortex)
# [3] = system: DOI-induced hypolocomotion; test: Attenuation of DOI-induced hypolocomotion in rats; assay type: in vivo, rat; details: 50 μmol/kg p.o., 60 min before DOI 0.3 mg/kg s.c.
# Description: In this Example, compounds of the invention, such as Compound 1 and Compound 26, were tested for inverse agonist activity by determining whether these compounds could attenuate DOI-induced hypolocomotion in rats in a novel environment. DOI is a potent 5HT2A/5HT2C receptor agonist that crosses the blood-brain barrier.
# Male Sprague-Dawley rats (Harlan, San Diego, Calif.) weighing between 200-300 g were used for all tests. Rats were housed three to four per cage. These rats were naive to experimental testing and drug treatment. Rats were handled one to three days before testing to acclimate them to experimental manipulation. Rats were fasted overnight prior to testing.
# (R)-DOI HCl (C11H16INO2HCl) was obtained from Sigma-Aldrich, and was dissolved in 0.9% saline. […]
# The “Motor Monitor” (Hamilton-Kinder, Poway, Calif.) was used for all activity measurement. This apparatus recorded rears using infrared photobeams. […]
# In determining the effects of compounds of the invention on DOI-induced hypoactivity, animals were first injected with vehicle or the compound of the invention (50 μmol/kg) in their home cages. […] 10 min after DOI administration, animals were placed into the activity apparatus and rearing activity was measured for 10 minutes.
# Results (total rears over 10 minutes) were analyzed by t-test. […]
# [4] = system: JC virus infection of human glial cells; details: Elphick et al., Science (2004); cited from earlier work
# T2 sequence (P14842 whole entry): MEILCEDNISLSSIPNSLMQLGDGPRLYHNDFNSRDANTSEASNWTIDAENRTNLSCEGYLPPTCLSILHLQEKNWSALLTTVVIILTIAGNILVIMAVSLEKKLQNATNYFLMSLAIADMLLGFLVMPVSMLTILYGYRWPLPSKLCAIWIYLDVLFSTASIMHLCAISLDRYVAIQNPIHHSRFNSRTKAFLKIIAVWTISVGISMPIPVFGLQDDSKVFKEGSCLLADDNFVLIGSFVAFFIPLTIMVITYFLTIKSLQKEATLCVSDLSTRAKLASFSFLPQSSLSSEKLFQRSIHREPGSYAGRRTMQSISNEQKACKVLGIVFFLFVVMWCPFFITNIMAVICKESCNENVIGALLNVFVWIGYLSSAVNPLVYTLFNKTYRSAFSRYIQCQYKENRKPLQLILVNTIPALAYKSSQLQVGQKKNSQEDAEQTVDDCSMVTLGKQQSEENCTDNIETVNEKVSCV
SMILES,effect on DOI-induced hypolocomotion (total rears over 10 minutes) [3],JC virus infection of human glial cells [4],other results
CN1CCN2c3ccccc3Cc3ccccc3C2C1 (stereo not shown) [mianserin],,,inhibition of serotonin-stimulated [35S]GTPγS binding ([1]; 30 μM mianserin): inhibits this response; effect on basal constitutive binding of [35S]GTPγS ([1]; no agonist): partial inverse agonist
"COc1ccc(OC(=O)Nc2cccc(-c3c(Br)cnn3C)c2)cc1 [Compound S-1610, [3-(4-Bromo-2-methyl-2H-pyrazol-3-yl)-phenyl]-carbamic acid 4-methoxy-phenyl ester]",,,displacement of 125I-LSD from the cortex (5HT2A) [2]: selectively displace
"COc1ccc(NC(=O)Nc2ccc(Cl)cc2)cc1-c1c(Cl)cnn1C [Compound 26, 1-[3-(4-Chloro-2-methyl-2H-pyrazol-3-yl)-4-methoxy-phenyl]-3-(4-chloro-phenyl)-urea]",attenuated DOI-induced hypolocomotion,,
"COc1ccc(NC(=O)Nc2ccc(Cl)cc2)cc1-c1c(Br)cnn1C [Compound 1, 1-[3-(4-Bromo-2-methyl-2H-pyrazol-3-yl)-4-methoxy-phenyl]-3-(4-chloro-phenyl)-urea]",attenuated DOI-induced hypolocomotion,,
Cc1nc2sccn2c(=O)c1CCN1CCC(=C(c2ccc(F)cc2)c2ccc(F)cc2)CC1 [Ritanserin],,inhibited,
O=C(c1ccc(F)cc1)C1CCN(CCn2c(=O)[nH]c3ccccc3c2=O)CC1 [ketanserin],,inhibited,

# — US20080200530A1 (priority 2005, published 2008)
